Measurements taken from US20080167271A1, “PHARMACEUTICAL COMPOSITIONS COMPRISING A BISPHOSPHONATE COMPOUND” (Besins Healthcare SA, priority 2006, published 2008).
Where two headings read alike, the source gives them in different places.

How the values were obtained:
[1] = tested on: human abdominal dermatomed skin; test: In vitro dermal absorption, Franz cell assay; assay type: in vitro ADME
[2] = Bisphosphonate concentration at about 90% saturation in vehicles; assay type: physicochemical
[3] = rat, published data (Lin et al., J Pharm Sci); cited from earlier work
ovariectomized rats = tested on: ovariectomized rats
Text: Ovariectomized rats are a recognised model for bone loss study, as the surgical operation causes an estrogen deficiency which results in rapid bone loss. See Guideline on the evaluation of medicinal products in the treatment of primary osteoporosis, CPMP/EWP/552/95 available for download from the European Medicine Agency at: http://www.emea.europa.eu/.
13-week old rats (Sprague-Dawley, virgin female), 8 per group, were sham operated (group 1-control) or ovariectomized (OVX) (groups 2 to 7) on the day before the first day of treatment. […] The ratio of D-Pyr to Creat is a recognised marker of bone resorption. See, e.g., Christenson RH “Biochemical markers of bone metabolism: an overview” Clin Biochem 1997, 30(8), 573-593.
Femur and L2-L5 lumbar vertebrae block Bone Mineral Density (BMD) were calculated from in vivo Dual-energy X-ray Absorptiometry (DXA) measurement at the same time points with an Hologic apparatus. BMD was also measured ex vivo on dissected femur and L4 vertebrae at the end of the treatment period.

[4] = humans; cited from earlier work
[5] = Solubility of menthol in hydroalcoholic mixtures with bisphosphonate at 90% saturation (GC-FID); conditions: QS 100 g phosphate buffer pH 6
[6] = buffered hydroalcoholic solution 90/10 buffer/ethanol
[7] = group 3: OVX rats, 2 μg/kg sc inj daily
[8] = group 4: OVX rats, topical 4.46 mg/kg daily (15.6 mg/kg/d for first 2 weeks)
[9] = group 5: OVX rats, topical 15.6 mg/kg weekly
[10] = group 7: OVX rats, topical 10.85 mg/kg twice weekly (15.6 mg/kg twice a week for first 2 weeks)

O=P(O)(O)C(O)(Cc1cccnc1)P(=O)(O)O [risedronate, 1-hydroxy-2-(3-pyridyl)ethylidene-1,1-bisphosphonic acid]
effect of glycerine on amount recovered in the receptor fluid and the dermis ([1]; FIGS. 12-13): does not significantly increase | percutaneous absorption: recovery in the receptor fluid and the dermis ([1]; Franz cell, human skin, 24 hrs): does cross the skin | effect of urea on amount recovered in the receptor fluid and dermis/skin ([1]; buffered solution vs 100% phosphate buffer, FIGS. 10-11): increases | effect of menthol on amount recovered in the receptor fluid and dermis ([1]; menthol at 90% of saturating concentration in 90/10 phosphate buffer/ethanol vs phosphate buffer solution, FIGS. 6-7): does not increase | amount recovered in the receptor fluid and the dermis with oleic acid ([1]; oleic acid at 90% of maximum solubility in 90/10 phosphate buffer/ethanol with Tween 80 4.5%, vs 100% phosphate buffer solution): lower | effect of urea on amount recovered in the receptor fluid and dermis ([1]; urea in phosphate buffer solution, FIGS. 8-9): neutral effect | effect of propylene glycol (PG) on amount recovered ([1]; vs 100% phosphate buffer solution, FIGS. 10-11): does not significantly affect | effect of the increase in alcohol content on absorption (percentage of the dose applied) ([1]; water/alcohol solutions, FIGS. 1-2): slightly increased | concentration of anhydrous monosodium salt at 90% saturation [2, 6]: 22.4 mg/g | concentration of anhydrous monosodium salt at 90% saturation ([2]; pure water): 45.3 mg/g

O=P([O-])(O)C(O)(Cc1cccnc1)P(=O)(O)O.[Na+] [Sodium Risedronate]
anhydrous concentration (w/w) at about 90% saturation ([2]; Water/ethanol ratio (v/v) 50/50): 0.02% | anhydrous concentration (w/w) at about 90% saturation ([2]; Water/ethanol ratio (v/v) 60/40): 0.17% | anhydrous concentration (w/w) at about 90% saturation ([2]; Water/ethanol ratio (v/v) 70/30): 0.22% | anhydrous concentration (w/w) at about 90% saturation ([2]; Water/ethanol ratio (v/v) 80/20): 0.77% | anhydrous concentration (w/w) at about 90% saturation ([2]; Water/ethanol ratio (v/v) 90/10): 1.66%

NCCCC(O)(P(=O)(O)O)P(=O)(O)O [alendronate, 4-amino-1-hydroxybutylidene-1,1-bisphosphonic acid]
bone recovery after oral administration [3]: 0.9% | BMD results compared with subcutaneous injection (group 3) or control (group 1) (ovariectomized rats; OVX rats treated with topical alendronate, groups 4-7): similar | Ex vivo BMD L4 vertebrae Week 8 (ovariectomized rats; [7]): 0.251 ± 0.012 g/cm^2 | In vivo BMD Vertebrae Evolution (Week 8 − Baseline) (ovariectomized rats; [7]): 0.035 ± 0.01 g/cm^2 | In vivo BMD metaphysis Week 8 (ovariectomized rats; [7]): 0.243 ± 0.029 g/cm^2 | In vivo BMD total femur Evolution (Week 8 − Baseline) (ovariectomized rats; [7]): 0.035 ± 0.015 g/cm^2 | In vivo BMD total femur Week 8 (ovariectomized rats; [7]): 0.291 ± 0.013 g/cm^2 | Ex vivo BMD L4 vertebrae Week 8 (ovariectomized rats; [8]): 0.26 ± 0.01 g/cm^2 | In vivo BMD Vertebrae Evolution (Week 8 − Baseline) (ovariectomized rats; [8]): 0.035 ± 0.012 g/cm^2 | In vivo BMD metaphysis Week 8 (ovariectomized rats; [8]): 0.270 ± 0.032 g/cm^2 | In vivo BMD total femur Evolution (Week 8 − Baseline) (ovariectomized rats; [8]): 0.04 ± 0.008 g/cm^2 | In vivo BMD total femur Week 8 (ovariectomized rats; [8]): 0.302 ± 0.015 g/cm^2 | Ex vivo BMD L4 vertebrae Week 8 (ovariectomized rats; [9]): 0.255 ± 0.017 g/cm^2 | In vivo BMD Vertebrae Evolution (Week 8 − Baseline) (ovariectomized rats; [9]): 0.023 ± 0.012 g/cm^2 | In vivo BMD metaphysis Week 8 (ovariectomized rats; [9]): 0.252 ± 0.009 g/cm^2 | In vivo BMD total femur Evolution (Week 8 − Baseline) (ovariectomized rats; [9]): 0.023 ± 0.016 g/cm^2 | In vivo BMD total femur Week 8 (ovariectomized rats; [9]): 0.293 ± 0.011 g/cm^2 | Ex vivo BMD L4 vertebrae Week 8 (ovariectomized rats; [10]): 0.261 ± 0.015 g/cm^2 | In vivo BMD Vertebrae Evolution (Week 8 − Baseline) (ovariectomized rats; [10]): 0.028 ± 0.008 g/cm^2 | In vivo BMD metaphysis Week 8 (ovariectomized rats; [10]): 0.264 ± 0.027 g/cm^2 | In vivo BMD total femur Evolution (Week 8 − Baseline) (ovariectomized rats; [10]): 0.032 ± 0.025 g/cm^2 | In vivo BMD total femur Week 8 (ovariectomized rats; [10]): 0.304 ± 0.024 g/cm^2 | dermal tolerance problems (ovariectomized rats; groups 4 and 7, topical 15.6 mg/kg/d and 15.6 mg/kg twice a week, doses reduced after 2 weeks): formation of dry scabs | BMD in the distal metaphysis (part of femur) compared with subcutaneous injection group (group 3) (ovariectomized rats; topically treated groups 4 and 7): statistically higher | concentration of anhydrous monosodium salt at 90% saturation [2, 6]: 10.4 mg/g | concentration of anhydrous monosodium salt at 90% saturation ([2]; pure water): 28.09 mg/g | systemic dose recovered in the urine [4]: approximately 50%

CC1CCC(C(C)C)C(O)C1 (stereo not shown) [menthol]
Solubility of menthol in the presence of sodium alendronate ([5]; 10 g ethanol absolute): 70 mg/100 g | Solubility of menthol in the presence of sodium risedronate ([5]; 10 g ethanol absolute): 80 mg/100 g | Solubility of menthol in the presence of sodium alendronate ([5]; 20 g ethanol absolute): 120 mg/100 g | Solubility of menthol in the presence of sodium risedronate ([5]; 20 g ethanol absolute): 140 mg/100 g
